Assay results reported in patent US10201558B2, “Compositions of selenoorganic compounds and methods of use thereof” (Alltech, Inc., priority 2014, dated 2019).
Entries after “also recorded” stand apart in the source; their conditions may differ.

Experiments:
Assay type in all cases: cell-based, human
[1] = test system: control KD and FOXO4KD IMR-32 cells; assay: Mitochondrial potential in control KD and FOXO4 knockdown IMR-32 cells; conditions: 75 ppb and 150 ppb, 6 hours
Description: (§1) IMR-32 cells were cultured on 12-well plates for 24 hours and then incubated with FOXO4 siRNA lentiviruses (SC-29650V, Santa Cruz) or control siRNA lentiviruses (sc-108080, Santa Cruz) in the presence of Polybrene (5 μg/ml, Santa Cruz) for 24 hours according to the manufacturer's protocol. These lentiviral siRNA-transfected cells were amplified in normal media for 3 days and then incubated with puromycin for 9-14 days to obtain the stable Control KD (stably transfected with the control siRNAs) and FOXO4KD (stably transfected with Foxo4 siRNAs) cells. These control and Foxo4 KD cells were subjected to cell survival, mitochondrial potential and RNA analysis.
The mitochondrial potential per cell in control lentiviral KD IMR-32 or IMR-32 FOXO4 knockdown (KD) cells was determined using the Bio-TeK Synergy HT Multi-Mode fluorescence microplate reader with the following modifications. To improve the attachment of IMR-32 cells to culture dishes, cell culture plates were precoated with 0.1% gelatin (Sigma, St. Louis, Mo.).
To reduce cell dislodgment, Mitotracker Orange and Hoechst 33342 fluorescent dyes (diluted in culture media) were directly added to each well after control or compound treatments were added. After dye incubation, cell culture media was carefully replaced with 1×PBS buffer for the quantitation analysis of fluorescence on the microplate reader. Eight samples per each treatment were examined for the above analysis, and the experiments were repeated at least five times. Data are presented as mean±sem of eight samples.
To exclude the possibility that unknown factors in sera may affect the action of Compound C in cultured IMR-32 cells, cells were cultured in serum-free media for 24 hours, treated with Compound C (diluted in serum-free media) for 6 hours, and then subjected to MT analysis. Data were normalized by the fluorescence intensities of stained cell nuclei. Mean±SEM, n=8. The * refers to a p value <0.05 when compared to the control lentiviral KD cells group (0 ppb).

RCAN1 = assay: QRT-PCR of RCAN1 and RCAN1.1 mRNA in control and FOXO4 KD IMR-32 cells; conditions: 24 hours
Description: as §1
(§2) Human IMR-32 cells were seeded on gelatinized 6-well (6.5×10^5 cells/well) or 24-well (1.3×10^5 cells/well) plates. Cells were treated with control (0 ppb) or various compounds for 6 hours or 24 hours. Total RNA from these cells was isolated using Trizol (Invitrogen) according to the manufacturer's protocol, and then incubated with DNase I to remove any potential contaminated genomic DNA. Then RNA samples were subjected to real-time PCR analysis using the Applied-Bioscience's RT kit and predesigned Taqman probes (Invitrogen), as described previously (Lan et al EMBO J 2003). The mRNA levels of UCP1, UCP2, UCP3, SLC25A27 (UCP4), SLC25A14 (UCP5), PSEN1, Nicastrin, GSK3B, MAPK11-14, PPARG, APOE, RCAN1, RCAN1.1, G6PC, INSR, IGF1R and FOXO4 were measured. Three to six samples were analyzed in each treatment group. Data were normalized by Actin B (ACTB) or Glyceraldehyde Phosphate Dehydrogenase (GAPDH) mRNA levels in each sample and are presented as mean±SEM of 3-6 samples.
To investigate whether Compound C can regulate transcription of RCAN1 in a dose-dependent and FOXO4-dependent manner, normal control cells and FOXO4 KD cells were treated with two doses of Compound C for 24 hours, and subjected to QRT-PCR analysis. First a specific RCAN1 Taqman probe that can recognize all RCAN1 mRNA isoforms was used to determine if Compound C can regulate the transcription of RCAN1.
To further determine whether Compound C can regulate the transcription of RCAN1.1 mRNA, the above Compound C-treated RNA samples were subjected to QRT-PCR using a specific RCAN1.1 mRNA Taqman probe.

MAPK13 = assay: QRT-PCR of MAPK13 mRNA in control and FOXO4 KD IMR-32 cells; conditions: 24 hours
Description: as §1, §2
Normal control cells and FOXO4KD cells were incubated with two doses of Compound C for 24 hours, and subjected to QRT-PCR analysis of the MAPK11-14 genes. The relative mRNA expression of all four MAPK genes in normal control IMR-32 cells was assessed. […] Data in Compound C-treated control and FOXO4 KD cells were normalized by their levels in control and FOXO4KD cells, respectively. Mean±SEM of indicated number of samples in the bar graphs. […]

[2] = test system: NOTCH signaling molecules in IMR-32 cells; assay: QRT-PCR of key NOTCH signaling molecules in IMR-32 cells; conditions: 150 ppb; for HER2 mRNA expression (mean ± sem) / HES1 mRNA expression (mean ± sem) / HEY1 mRNA expression (mean ± sem) / NFKB1 mRNA expression (mean ± sem) / NFKB2 mRNA expression (mean ± sem) / NOTCH 1 mRNA expression (mean ± sem) / NOTCH 2 mRNA expression (mean ± sem) / NOTCH 3 mRNA expression (mean ± sem) / RBPJ mRNA expression (mean ± sem): control 100
Description: QRT-PCR analysis of several Notch signaling molecules was performed in IMR-32 cells to test if Compound C is toxic to the Notch signaling in vitro. In brief, IMR-32 cells were treated with a water control and 150 ppb Compound C in 10% FBS containing MEM media for 6 hours, 24 hours, and 48 hours. These molecules were selected based on the IPA GO search.

[3] = FOXO4KD cells, 75 ppb and 150 ppb

Question: C[Se]C[C@H]1O[C@@H](n2cnc3c(N)ncnc32)C(O)C1O (stereo in doubt) [Compound C, 5′-deoxy-5′-methylselenoadenosine] was tested. Which MT potential ([1]; FOXO4KD cells, serum-containing media) did it give?
Answer: The MT potential was “no significant effect”.

Question: And the MT potential ([1]; FOXO4KD cells, serum-free media)?
Answer: The MT potential was “no significant increase”.

Question: And the MT potential ([1]; normal control KD cells, serum-containing media)?
Answer: Its MT potential is “significantly enhanced”.

Question: And the MT potential ([1]; normal control KD cells, serum-free media)?
Answer: Its MT potential is “significantly stimulated”.

Question: And the “RCAN1.1 mRNA expression” value (RCAN1; [3])?
Answer: Its value is “not significantly affected”.

Question: And the “total RCAN1 mRNA levels” value (RCAN1; [3])?
Answer: Its value is “not significantly altered”.

Question: And the “total RCAN1 mRNA levels” value (RCAN1; control cells (control siRNA lentiviruses), 75 ppb and 150 ppb)?
Answer: The value was “dose-dependent decrease; also recorded: significantly attenuated”.

Question: What about the “RCAN1.1 mRNA expression” value (RCAN1; control cells, 150 ppb) of the same compound?
Answer: Its value is “inhibited”.

Question: And the “MAPK13 mRNA levels” value (MAPK13; [3])?
Answer: Its value is “none of the mRNA levels of the four MAPK genes in FOXO4KD cells were significantly altered”.

Question: What about the “MAPK13 mRNA levels” value (MAPK13; control KD cells, 75 ppb) of the same compound?
Answer: The value was “trend towards decreased”.

Question: What about the “MAPK13 mRNA levels” value (MAPK13; control KD cells, 150 ppb) of the same compound?
Answer: Its value is “significantly decreased”.

Question: And the “NOTCH 4 mRNA expression” value ([2]; 6 hours treatment (cell spans control and #C))?
Answer: Its value is “Undetected”.

Question: What about the “HER2 mRNA expression (mean ± sem)” value ([2]; 6 hours treatment) of the same compound?
Answer: The value was 96 ± 4 (4).

Question: What about the “HES1 mRNA expression (mean ± sem)” value ([2]; 6 hours treatment) of the same compound?
Answer: Its value is 101 ± 6 (4).

Question: What about the “HEY1 mRNA expression (mean ± sem)” value ([2]; 6 hours treatment) of the same compound?
Answer: The value was 120 ± 9 (4).

Question: What about the “NFKB1 mRNA expression (mean ± sem)” value ([2]; 6 hours treatment) of the same compound?
Answer: Its value is 112 ± 7 (4).

Question: And the “NFKB2 mRNA expression (mean ± sem)” value ([2]; 6 hours treatment)?
Answer: Its value is 103 ± 7 (4).

Question: What about the “NOTCH 1 mRNA expression (mean ± sem)” value ([2]; 6 hours treatment) of the same compound?
Answer: Its value is 94 ± 7 (4).

Question: What about the “NOTCH 2 mRNA expression (mean ± sem)” value ([2]; 6 hours treatment) of the same compound?
Answer: Its value is 95 ± 16 (4).

Question: What about the “NOTCH 3 mRNA expression (mean ± sem)” value ([2]; 6 hours treatment) of the same compound?
Answer: The value was 95 ± 7 (4).

Question: What about the “RBPJ mRNA expression (mean ± sem)” value ([2]; 6 hours treatment) of the same compound?
Answer: Its value is “trend of increased expression”.

Question: And the “RBPJ mRNA expression (mean ± sem)” value ([2]; 6 hours treatment, listed as #C)?
Answer: The value was 144 ± 12 (4).

Question: And the “expression of all tested Notch signaling genes” value ([2]; 6 hours, 24 hours and 48 hours)?
Answer: The value was “did not significantly inhibit”.

Question: And the “NOTCH 4 mRNA expression” value ([2]; 24 hours treatment (cell spans control and #C))?
Answer: The value was “Undetected”.

Question: And the “HER2 mRNA expression (mean ± sem)” value ([2]; 24 hours treatment)?
Answer: The value was 100 ± 11.

Question: What about the “HES1 mRNA expression (mean ± sem)” value ([2]; 24 hours treatment) of the same compound?
Answer: Its value is 102 ± 18.

Question: And the “HEY1 mRNA expression (mean ± sem)” value ([2]; 24 hours treatment)?
Answer: The value was 121 ± 10.

Question: And the “NFKB1 mRNA expression (mean ± sem)” value ([2]; 24 hours treatment)?
Answer: Its value is 106 ± 11.

Question: What about the “NFKB2 mRNA expression (mean ± sem)” value ([2]; 24 hours treatment) of the same compound?
Answer: Its value is 85 ± 28 (3).

Question: And the “NOTCH 1 mRNA expression (mean ± sem)” value ([2]; 24 hours treatment)?
Answer: Its value is 89 ± 10 (3).

Question: And the “NOTCH 2 mRNA expression (mean ± sem)” value ([2]; 24 hours treatment)?
Answer: Its value is 103 ± 27.

Question: What about the “NOTCH 3 mRNA expression (mean ± sem)” value ([2]; 24 hours treatment) of the same compound?
Answer: The value was 105 ± 14.

Question: What about the “RBPJ mRNA expression (mean ± sem)” value ([2]; 24 hours treatment) of the same compound?
Answer: The value was 119 ± 37.

Question: And the “HER2 mRNA expression (mean ± sem)” value ([2]; 48 hours treatment)?
Answer: The value was 106 ± 23.

Question: What about the “HES1 mRNA expression (mean ± sem)” value ([2]; 48 hours treatment) of the same compound?
Answer: Its value is 115 ± 9 (4).

Question: What about the “HEY1 mRNA expression (mean ± sem)” value ([2]; 48 hours treatment) of the same compound?
Answer: Its value is 115 ± 11.

Question: And the “NFKB1 mRNA expression (mean ± sem)” value ([2]; 48 hours treatment)?
Answer: The value was 109 ± 12.

Question: And the “NFKB2 mRNA expression (mean ± sem)” value ([2]; 48 hours treatment)?
Answer: Its value is 97 ± 14 (4).

Question: What about the “NOTCH 1 mRNA expression (mean ± sem)” value ([2]; 48 hours treatment) of the same compound?
Answer: Its value is 90 ± 9 (3).

Question: What about the “NOTCH 2 mRNA expression (mean ± sem)” value ([2]; 48 hours treatment) of the same compound?
Answer: Its value is 94 ± 40 (3).

Question: What about the “NOTCH 3 mRNA expression (mean ± sem)” value ([2]; 48 hours treatment) of the same compound?
Answer: Its value is 81 ± 23 (4).

Question: What about the “RBPJ mRNA expression (mean ± sem)” value ([2]; 48 hours treatment) of the same compound?
Answer: The value was 97 ± 7 (4).
